Test system: GUMC-403
Assay: viability at highest tested concentration (max response) relative to DMSO (% of DMSO control); higher = less cytotoxic
Conditions: library / dose series: MIPE library, 11-point 1:3 dilution; top concentration 46.1 µM; 48 h
How it was run: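 In 1536-well plates, 700 GUMC-403 papilloma cells per well, taken from a patient and grown by conditional reprogramming, were seeded in 5 μL F + Y medium and incubated overnight at 37 °C. Compounds were pinned in at 23 nL in an 11-point 1:3 series, and left for 48 h before CellTiter-Glo luminescence was read on a ViewLux against vehicle (100%) and empty (0%) wells. Reported values are viability at the highest tested concentration relative to vehicle control.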

**Q.** With `O=C1N\2CCC3=C([NH]C4=C3C=CC=C4)C2=N/C5=CC=CC=C15` as the compound, how does the viability read?
**A.** The viability was 109.

**Q.** `c1ccc(CNc2nc(N3CCOc4ccccc43)nc3c2CCCC3)cc1` was tested. Which viability did it give?
**A.** The viability was 131.

**Q.** Which viability does the source give for `CCNc1cc(NC2CCC(O)CC2)nc(Nc2ccc3c(ccn3Cc3ccccc3)c2)n1` (stereo not given) here?
**A.** The viability was 99.8.

**Q.** For `CCC(=O)NCC[C@@H]1CCc2ccc3c(c21)CCO3`, which viability is on record?
**A.** The viability was 122.

**Q.** `NC(=O)c1cccc(-c2cc(Nc3ccc(OC(F)(F)F)cc3)ncn2)c1` was tested. Which viability did it give?
**A.** The viability was 117.

**Q.** Which viability does the source give for `COc1cc(N2CCC(N3CCN(C)CC3)CC2)ccc1Nc1ncnc(Nc2ccccc2[S+](=O)([O-])C(C)C)n1` here?
**A.** Its viability is 49.4.

**Q.** Which viability does the source give for `CC(C)(Sc1ccc(CCN(CCCCC2CCCCC2)C(=O)NC2CCCCC2)cc1)C(=O)O` here?
**A.** Its viability is 109.

**Q.** `OCCN1C[C@H](O)[C@@H](O)[C@H](O)[C@H]1CO` was tested. Which viability did it give?
**A.** The viability was 151.

**Q.** How did the viability turn out when `NC(=O)c1cccnc1` was run?
**A.** Its viability is 136.

**Q.** How did the viability turn out when `C[C@@H](Oc1cc(-c2cnn(C3CCNCC3)c2)cnc1N)c1c(Cl)ccc(F)c1Cl` was run?
**A.** The viability was 76.6.

**Q.** `Nc1nc(N)c2nc(CNc3ccc(C(=O)NC(CCC(=O)O)C(=O)O)cc3)cnc2n1` (stereo not given) was tested. Which viability did it give?
**A.** Its viability is 76.6.

**Q.** For `CNCCCC12CCC(c3ccccc31)c1ccccc12`, which viability is on record?
**A.** The viability was 105.

**Q.** For `CN(C)C1=C(Br)C=C(C=C1)C\2NC3=C(\C4=C2C(=O)CC(C)(C)C4)C5=CC=CC=C5C=C3` (stereo not given), which viability is on record?
**A.** The viability was 99.8.

**Q.** Which viability does the source give for `Cc1ccc(-c2ncn(-c3ccc(Nc4nccc(-c5cccc(N6CCOCC6)c5)n4)cc3)n2)cn1` here?
**A.** The viability was 32.

**Q.** With `CN1CCC[C@@H]1CCO[C@](C)(c1ccccc1)c1ccc(Cl)cc1` as the compound, how does the viability read?
**A.** The viability was 103.

**Q.** Which viability does the source give for `O=C(O)Cn1nnc(-c2cc(N3CCC(Oc4cc(F)ccc4Br)CC3)no2)n1` here?
**A.** Its viability is 128.

**Q.** How did the viability turn out when `CCOC(=O)[C@H](CCc1ccccc1)N[C@H]1CS[C@H](c2cccs2)CN(CC(=O)O)C1=O.Cl` was run?
**A.** The viability was 118.

**Q.** `CCc1cccc2c3c([nH]c12)C(CC)(CC(=O)O)OCC3` (stereo not given) was tested. Which viability did it give?
**A.** Its viability is 132.

**Q.** `OC(CN1CCC(Cc2ccc(F)cc2)CC1)c1ccc(Cl)cc1` (stereo not given) was tested. Which viability did it give?
**A.** The viability was 103.

**Q.** For `O=C(/C=C/c1ccc(O)cc1)c1ccc(O)cc1O`, which viability is on record?
**A.** Its viability is 77.

**Q.** For `COc1cccc([C@@H](C)NCCCc2ccccc2Cl)c1`, which viability is on record?
**A.** Its viability is 105.

**Q.** For `C[S+]([O-])(=O)C1=CC=C(C=C1)C/2=C(/C(=O)OC2)C3=CC=CC=C3`, which viability is on record?
**A.** The viability was 122.

**Q.** Which viability does the source give for `CNNCc1ccc(C(=O)NC(C)C)cc1` here?
**A.** Its viability is 149.

**Q.** How did the viability turn out when `O=C1Nc2ccc(I)cc2/C1=C/c1cc(Br)c(O)c(Br)c1` was run?
**A.** The viability was 146.

**Q.** With `CC(NCCc1ccc(O)cc1)C(O)c1ccc(O)cc1` (stereo not given) as the compound, how does the viability read?
**A.** Its viability is 124.

**Q.** For `CNC(=O)C1=CC=C(C)C(=C1)N2C(=C/C(=C(/Br)C2=O)OCC3=C(F)C=C(F)C=C3)\C`, which viability is on record?
**A.** The viability was 109.

**Q.** Which viability does the source give for `Cc1cc(-c2nnc3n2CCCCC3)c(C)n1-c1ccccc1` here?
**A.** The viability was 103.

**Q.** Which viability does the source give for `CN(CC#C)C/C1=C/C2=CC=CC=C2OC3=CC=CC=C13` here?
**A.** The viability was 81.4.

**Q.** How did the viability turn out when `O=C(c1ccc(OCCN2CCCCC2)cc1)c1c(-c2ccc(O)cc2)sc2cc(O)ccc12` was run?
**A.** Its viability is 94.4.

**Q.** How did the viability turn out when `CNC1CCC(N(Cc2cccc(-c3ccncc3)c2)C(=O)c2sc3c(F)ccc(F)c3c2Cl)CC1` (stereo not given) was run?
**A.** The viability was 75.5.

**Q.** For `N=C(N)c1ccc(OCCCCCOc2ccc(C(=N)N)cc2)cc1`, which viability is on record?
**A.** The viability was 101.

**Q.** Which viability does the source give for `COc1ccc(C2Sc3ccccc3N(CCN(C)C)C(=O)C2OC(C)=O)cc1` (stereo not given) here?
**A.** The viability was 110.

**Q.** For `CN(C)c1nc(N(C)C)nc(N(C)C)n1`, which viability is on record?
**A.** Its viability is 95.4.

**Q.** `CNCC(O)c1ccc(O)cc1` (stereo not given) was tested. Which viability did it give?
**A.** Its viability is 132.

**Q.** For `CC(C)NCC(O)c1ccc(O)c(O)c1` (stereo not given), which viability is on record?
**A.** The viability was 127.

**Q.** `O=C(O)CCCc1c[nH]c2ccccc12` was tested. Which viability did it give?
**A.** The viability was 107.

**Q.** `Cc1cc(Nc2cc(N3CCN(C)CC3)nc(Sc3ccc(NC(=O)C4CC4)cc3)n2)[nH]n1` was tested. Which viability did it give?
**A.** Its viability is 86.3.

**Q.** `N[C@@H](Cc1c[nH]c2ccc(O)cc12)C(=O)O` was tested. Which viability did it give?
**A.** Its viability is 106.

**Q.** Which viability does the source give for `COC(=O)Nc1nc2cc(C(=O)c3cccs3)ccc2[nH]1` here?
**A.** The viability was 105.

Same assay, conditions: library / dose series: MIPE library, 11-point 1:3 dilution; top concentration 92.2 µM; 48 h

**Q.** With `O=C(/C=C/c1cccc([S+](=O)([O-])Nc2ccccc2)c1)NO` as the compound, how does the viability read?
**A.** Its viability is 87.7.
